{"source": "patent US20100222284A1", "about": "“COMPOSITION FOR INHIBITING THE ONSET OF ARTERIOSCLEROSIS AND INHIBITION METHOD” (priority 2004, published 2010)", "key": {"CLA-1 promoter": {"tested_on": "CLA-1 promoter", "test": "CLA-1 promoter luciferase reporter gene activity in HepG2 cells", "assay_type": "cell-based, human", "settings": "HepG2, 24 hours; 2.8-22.4 mM D-glucose or 22.4 mM D-psicose", "method": "Further, by integrating a 1200 by promoter region of the CLA-1 gene into a luciferase reporter gene, introducing the gene into a cell and measuring the luciferase activity, the transcriptional activity of CLA-1 was determined.\n6. The transcriptional activity of CLA-1 was also examined. The luciferase reporter gene containing the CLA-1 promoter was introduced into HepG2 cells and the resulting HepG2 cells were cultured with 2.8 mM (lane 1), 5.6 mM (lane 2), 11.2 mM (lane 3), 22.4 mM (lane 4) D-glucose or 22.4 mM D-psicose for 24 hours and the luciferase activity was measured. A high concentration of D-glucose inhibited the activity of the CLA-1 promoter."}, "[1]": {"test": "Basic safety tests (mutagenicity, biodegradability, oral acute toxicity, primary skin irritation, primary eye irritation)", "settings": "biodegradability and three acute toxicity tests performed by a designated organization", "description": "In the development of drugs, quasi drugs, foods and the like, the most important and the biggest hurdle is the verification of safety of a rare sugar as a novel substance. A mutagenicity test, a biodegradability test and three types of acute toxicity tests (an oral acute toxicity test, a primary skin irritation test and a primary eye irritation test) are defined as the most basic safety tests. A rare sugar is a monosaccharide that exists in nature even in a small amount, therefore, it can be predicted that it will be safe. However, it is necessary to perform verification precisely. We asked the designated organization to perform the basic safety tests for three types of rare sugars, D-psicose, D-allose and allitol among rare sugars."}}, "data": [{"smiles": "O=C(CO)[C@H](O)[C@H](O)[C@H](O)CO", "note": "[D-psicose]", "values": [{"measurement": "activity of the CLA-1 promoter (luciferase activity)", "setting": "CLA-1 promoter", "value": "did not affect"}, {"measurement": "basic safety tests", "setting": "[1]", "value": "there are not any problems in the safety"}]}, {"smiles": "O=C[C@H](O)[C@H](O)[C@H](O)[C@H](O)CO", "note": "[D-allose]", "values": [{"measurement": "basic safety tests", "setting": "[1]", "value": "there are not any problems in the safety"}]}, {"smiles": "OC[C@@H](O)[C@@H](O)[C@@H](O)[C@@H](O)CO", "note": "[allitol]", "values": [{"measurement": "basic safety tests", "setting": "[1]", "value": "there are not any problems in the safety"}]}, {"smiles": "O=C[C@H](O)[C@@H](O)[C@H](O)[C@H](O)CO", "note": "[D-glucose, reference compound]", "values": [{"measurement": "activity of the CLA-1 promoter (luciferase activity)", "setting": "CLA-1 promoter", "value": "inhibited"}]}]}
